Where a name gives a salt, the structure may show the parent alone.
What was measured:
[1] = established in previous literature; basis for dosing up to 100xCmax; read-out: Cmax (the maximum plasma concentration); cited from earlier work
[2] = tested on: tri-cultures of hepatocytes with 3T3-J2 fibroblasts and either liver sinusoidal endothelial cells (LSECs) or human umbilical vein endothelial cells (HUVECs); test: Drug toxicity screen: albumin secretions in hepatocyte/fibroblast/endothelia tri-cultures; conditions: azathioprine 100x and 50xCmax, dacarbazine 100xCmax, monocrotaline 100xCmax; 6 days, serum-free media; tri-cultures with LSECs or HUVECs compared with hepatocyte/3T3-J2 co-cultures
Protocol: Tissue culture polystyrene 24-well plates (Corning® Life Sciences) were coated for 2 hours with 25 μg/mL rat tail collagen-I (Corning® Life Sciences) and rinsed twice with sterile water. […] Cryopreserved PHHs after processing were seeded at a density of 6.67×10^5 cells/mL into collagen micropatterned wells (300 μL/well). After allowing 4-5 hours for cellular attachment and spreading onto collagen-coated islands, wells were washed 3× in DMEM base medium to remove unattached cells, leaving ˜3×10^4 PHHs per well in 24-well format (˜90 islands/well). Cultures in the co-planar arrangement were backfilled with fibronectin (2 μg/cm^2) before endothelia and 3T3-J2 fibroblasts were seeded 12-18 hours later and allowed to fill the remaining area surrounding the PHH islands. The hepatocyte:endothelial ratio was chosen to match the physiologic ratio of 5 hepatocytes (3×10^4 per well) to 1 endothelium (6×10^3 per well), and 3T3-J2 fibroblasts were added to bring the total stromal cell count to 9×10^4 cells per well. Cultures in the layered configuration were seeded with 9×10^4 3T3-J2 fibroblasts per well 12-18 hours after seeding PHHs to fill in remaining areas, overlaid with 250 μg/mL Matrigel® (Corning® Life Sciences), and then seeded with 6×10^3 endothelia per well the following day. […]
Hepatic morphological, functionality, and health assessments. The morphology of MPCCs was monitored using an EVOS® FL cell imaging system (Life Technologies) with standard 4×, 10×, and 20× phase contrast objectives. CYP3A4 activity in MPCCs was measured using the luminescence-based luciferin-IPA assay from Promega® (Madison, WI) per manufacturer's instructions. CYP2A6 was evaluated by treating the cultures with 50 μM coumarin for 1 hour and measuring the production of the metabolite 7-hydroxycoumarin. Albumin secretions were assessed with an enzyme-linked immunosorbent assay (ELISA) with horseradish peroxidase detection and 3,3′,5,5′-tetramethylbenzidine as the substrate. Urea production was measured via a colorimetric endpoint analysis with diacetylmonoxime, acid, and heat (Stanbio® Labs, Boerne, TX). […]

LSECs = conditions: known from the literature; cited from earlier work

Compound | Cmax [1] | Albumin secretions (drug toxicity), normalized to DMSO-only controls [2] | Toxicity specific to LSECs rather than hepatocytes (LSECs)
C[C@H]1C(=O)O[C@@H]2CCN3CC=C(COC(=O)[C@](C)(O)[C@]1(C)O)[C@H]23 [monocrotaline] | 10 µM | more responsive to drug toxicity | toxicity specific to LSECs rather than hepatocytes
CCN(CC)CCOc1ccc(C(=C(Cl)c2ccccc2)c2ccccc2)cc1 [clomiphene citrate] | – | – | toxicity specific to LSECs rather than hepatocytes
CN(C)/N=N/c1[nH]cnc1C(N)=O [dacarbazine] | 43.9 µM | more responsive to drug toxicity | toxicity specific to LSECs rather than hepatocytes
Cn1cnc([N+](=O)[O-])c1Sc1ncnc2nc[nH]c12 [azathioprine] | 3.61 µM | more responsive to drug toxicity | toxicity specific to LSECs rather than hepatocytes

— US12180507B2, “Engineered platforms to stabilize both hepatocytes and endothelial cells in vitro” (Colorado State University Research Foundation, priority 2015, dated 2024)
